Data on four compounds can be found in patent US12215123B2, “Cordycepin-based derivatized compound with anti-tumor effect” (NANJING TECH UNIVERSITY, priority 2022, dated 2025).

Structures can show the parent of a compound that is named as a salt. Where two headings read alike, the source gives them in different places.

The subject of experiment [1] is gastric cancer cell line BGC-823. Nature of the experiment: MTT proliferation, gastric cancer cell line BGC-823. The experiment is classed as cell-based. The following applies: read-out: IC50 (μM) in gastric cancer cells, BGC-823. The protocol: (§1) The method for determining inhibitory activities of the compounds on the proliferation of tumor cells by an MTT method is as follows: a bottle of cells in a good state in an exponential growth phase is added with 0.25% trypsin digestive juice, the digestion makes adherent cells fall off, with 2 to 4×10^4 cells/mL, and a cell suspension is prepared. The cell suspension is inoculated on a 96-well plate, with 90 μL/well, and cultured in a constant-temperature CO2 incubator for 24 hours. The prepared compounds are added for testing, with 10 μL/well, and cultured for 72 hours. An MTT reagent is added into a 96-well plate, with 10 μL/well, and reacts in an incubator for 4 hours to absorb a supernatant, and then dimethyl sulfoxide is added, with 100 μL/well. After a crystal is dissolved, an absorbance of each well at a wavelength of 570 nm is measured by an enzyme-linked immunosorbent assay instrument, and a cell inhibition rate is calculated. An S curve is made with a compound concentration and a corresponding inhibition rate. Therefore, IC50 of a corresponding compound is obtained.
(§2) Anti-tumor dose-effect relationship curves of the cordycepin and 40 compounds prepared in gastric cancer cell lines AGS and BGC-823 were analyzed by an MTT experimental method.

A further experiment relates to B16-F10 melanoma cells. In words: Mouse transplanted melanoma model. The experiment is classed as in vivo, C57BL/6j nude mice. The following applies: B16-F10 transplanted mice; for tumor volume: intragastric 500 ug/time/animal every other day, 24 days, blank 1760 mm^3. The method, then: (§3) The feeding of the mouse model in the drug evaluation follows that: mice are fed and treated in a laminar flow cabinet, with 5 nude mice in each cage, drinking water and feedstuffs are added once every 3 days, and paddings are replaced once a week; a number of mice kept in each cage is no more than 5, the mice in separate cages are kept in groups as far as possible, and the mice should not be kept in a single cage; the animal management must conform to the relevant national standards on animal feeding management, and the behavioral needs of animals should be concerned at the same time to avoid unnecessary stress; the normal physiological and behavioral needs of animals, such as defecation, urination, constant body temperature maintenance, normal activities, posture adjustment and reproduction are met; good ventilation and dry animals are kept; the animals can access to drinking water and food at will, and supplementation, replacement and cleaning operations are easily carried out; a solid and safe environment is provided to avoid accidents of animals, such as escaping or limb trapping in a gap; the animals are avoided from being damaged by sharp edges or protrusions; and the animals are not disturbed during observation.
A mouse transplanted melanoma model was established and a drug was evaluated. 2.5×10^5 B16-F10 melanoma cells were suspended in 100 μL of PBS to be inoculated into an outer side of thigh of left lower limb of C57BL/6j nude mice. One week later, when the transplanted tumor reached about 100 mm^3, the mice were randomly divided into ten groups, with 10 mice in each group, comprising a blank control group, a cordycepin group, a compound 13 group, a compound 14 group, a compound 17 group, a compound 19 group, a compound 22 group, a compound 26 group, a compound 29 group and a compound 34 group respectively. The blank control group was intragastrically administrated with a nutritional agent such as a corn steep liquor and DMSO as a solvent control every day for 24 consecutive days, and the compound groups were intragastrically administrated with corresponding compounds (500 ug/time/animal in all cases) every other day for 24 consecutive days. […] The mice were killed after the experiment, blood and corresponding tissue samples were collected, tumor bodies were immediately photographed and weighed, and some tumor tissues were fixed in a formalin solution to be further detected. Two vertical diameters (length and width) of the transplanted tumor were measured with a caliper every two days to calculate a size of the transplanted tumor, and a tumor value was calculated according to a formula: tumor volume (mm^3)=[…].

The test system of experiment [2] is gastric cancer cell line AGS. In words: MTT proliferation, gastric cancer cell line AGS. The experiment is classed as cell-based. The note with it: read-out: IC50 (μM) in gastric cancer cells, AGS. The method, then: as §1, §2
The next experiment concerns MC-38 colon cancer cells. Nature of the experiment: Mouse transplanted colon cancer model. The experiment is classed as in vivo, C57BL/6j nude mice. The note with it: MC-38 transplanted mice, 28 days, 500 ug/time/animal intragastric (compound daily, antibody every 4 days); control 1,300 mm^3. The protocol:
as §3
A mouse transplanted colon cancer model was established and a drug was evaluated. […]

Experiment [3] deals with small cell lung cancer cell line H69. In words: MTT proliferation, small cell lung cancer cell line H69. In kind it is cell-based. The following applies: MTT, 72 hours, H69; read-out: IC50 (μM) of compounds in small cell lung cancer cells, H69. The protocol:
as §1
(§4) Anti-tumor dose-effect relationship curves of cordycepin and compounds 1, 2, 4, 5, 7, 8, 10, 12, 16, 18, 21, 23, 24, 35 and 38 in small cell lung cancer cell lines H1048, H446 and H69 were analyzed by an MTT experimental method.

Experiment [4] has as its system small cell lung cancer cell line H1048. Nature of the experiment: MTT proliferation, small cell lung cancer cell line H1048. The following applies: MTT, 72 hours, H1048; read-out: IC50 (μM) of compounds in small cell lung cancer cells, H1048. In kind it is cell-based. The protocol:
as §1, §4

Experiment [5] deals with small cell lung cancer cell line H446. In words: MTT proliferation, small cell lung cancer cell line H446. The experiment is classed as cell-based. The following applies: MTT, 72 hours, H446; read-out: IC50 (μM) of compounds in small cell lung cancer cells, H446. The protocol:
as §1, §4

The mark [6] stands for this setting: Homo sapiens, MTT, 72 hours, BGC-823.

A word on the IC50: it is the concentration needed to halve the response being measured. `COC(=O)C(C)NP(=O)(Oc1ccccc1)OC1C[C@@H](CO)O[C@H]1n1cnc2c(NC(=O)c3ccncc3)ncnc21` (stereo partly drawn) [Compound 34, methyl(((5-(hydroxymethyl)-2-(6-(isonicotinamide)-9H-purin-9-yl)tetrahydrofuran-3-yl)oxy)(phenoxy)phosphoryl)alanine salt]: the IC50 came to 24.2 µM in experiment [1] (setting [6]) and 19.4 µM in experiment [2] (MTT, 72 hours, AGS). Moreover, in the experiment with B16-F10 melanoma cells, the tumor volume entry was “about 240 mm^3”.
The matching figures for `CC(C)(C)C(=O)OCOP(=O)(COC[C@@H]1CC(O)[C@H](n2cnc3c(N)nc(S)nc32)O1)OCOC(=O)C(C)(C)C` (stereo partly drawn) [Compound 19]: 0.76 µM, 0.46 µM and “about 240 mm^3”.
For `CC(C)OC(=O)C(C)NP(=O)(COC[C@H]1O[C@@H](n2cnc3c(N)ncnc32)C(O)[C@H]1N=[N+]=[N-])Oc1ccccc1` (stereo partly drawn) [Compound 27, isopropyl((((5-(6-amino-9H-purine-9-yl)-3-azide-4-hydroxytetrahydrofuran-2-yl)methoxy)methyl)(phenoxy)phosphoryl)alanine ester], the IC50 in experiment [1] (Homo sapiens, BGC-823, 72 h) stood at 10.2 µM; in experiment [2] (72 h), 8.42 µM. Further, the “inhibition of melanoma” value in the experiment on B16-F10 melanoma cells (same method as Embodiment 46) is on record as “the Same Inhibition Effect as a Compound 26”.
Turning to `CC(C)OC(=O)[C@H](C)NP(=O)(COCC1CC(C#N)C(n2cnc3c(N)ncnc32)O1)Oc1ccccc1` (stereo partly drawn) [Compound 16], in the experiment on MC-38 colon cancer cells, the tumor size stood at 480 mm^3. Further, the IC50 in experiment [3] was determined as 23.3 µM; in experiment [4] it was 25.5 µM; in experiment [1] (MTT, 72 hours, BGC-823), 0.19 µM; in experiment [5] it was 19.1 µM; in experiment [2] (MTT, 72 hours, AGS), 0.14 µM.
